Results published in patent US9540376B2, “Hexahydrodiazepinoquinolines carrying a substituted alkyl radical” (priority 2014, dated 2017).

Columns and labels:
Assay type in all cases: cell-based
[1] = biological target: T1, human 5-HT2A receptor (Homo sapiens, UniProt P28223); assay: Human 5-HT2A functional assay (calcium mobilisation in CHO-K1 cells); conditions: for Emax: CHO-K1, read-out: % efficacy (5-HT2A); for EC50: potency in functional assay, agonism (first addition), calcium mobilisation; for Selectivity (based on agonism) EC50 5-HT2A/EC50 5-HT2C: ratio EC50 5-HT2A/EC50 5-HT2C
T1 construct: expressed in transfected cells; host or cells: CHO-K1
T1 sequence (P28223 whole entry): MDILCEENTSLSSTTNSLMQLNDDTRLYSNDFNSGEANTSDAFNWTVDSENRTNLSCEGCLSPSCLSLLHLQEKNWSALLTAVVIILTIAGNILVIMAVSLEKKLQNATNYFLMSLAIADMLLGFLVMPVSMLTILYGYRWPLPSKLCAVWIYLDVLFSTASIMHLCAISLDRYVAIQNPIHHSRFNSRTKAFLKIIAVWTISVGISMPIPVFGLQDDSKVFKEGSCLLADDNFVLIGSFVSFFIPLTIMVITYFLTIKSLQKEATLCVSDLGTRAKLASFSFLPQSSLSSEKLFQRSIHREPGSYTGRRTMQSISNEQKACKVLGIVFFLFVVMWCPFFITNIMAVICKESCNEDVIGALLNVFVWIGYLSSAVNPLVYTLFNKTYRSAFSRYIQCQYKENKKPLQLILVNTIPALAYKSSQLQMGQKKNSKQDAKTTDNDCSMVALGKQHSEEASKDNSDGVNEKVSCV
Protocol: 2. Human 5-HT2A Functional Assay
Cells were seeded into sterile black 384-well plates with clear bottom at 25,000 cells/well in a volume of 25 μl and grown for 5-6 hours at 37° C., in 5% CO2 in tissue culture medium (“Ultra CHO” by LONZA), containing 1% dialysed FCS and 50 μg/ml gentamicin (Invitrogen). After this incubation, medium was replaced by a serum free version of the same tissue culture medium followed by incubation overnight at 37° C. and in 5% CO2. Cells were then loaded with a fluorescent calcium-sensitive dye in the presence of 0.07% probenecid for an hour at 37° C., according to the manufacturer's protocol (Ca5-Assay Kit, Molecular Devices), followed by an additional 60 min incubation at room temperature. […] The relative efficacy of the compounds was calculated as a percentage of the maximal effect induced by serotonin alone (defined as 100%). To determine EC50/IC50 values, concentration-response curves were fitted using a four-parameter logistic equation (IDBS Biobook™). Kb values were calculated from IC50 values, according to Cheng & Prusoff.

[2] = biological target: T2, human 5-HT2B receptor (Homo sapiens, UniProt P41595); assay: Human 5-HT2B functional assay (calcium mobilisation in CHO-FlpIn cells); conditions: for EC50: potency in functional assay, agonism (first addition), calcium mobilisation; for Selectivity (based on agonism) EC50 5-HT2B/EC50 5-HT2C: ratio EC50 5-HT2B/EC50 5-HT2C; for Emax: read-out: % efficacy (5-HT2B), relative efficacy vs maximal effect of serotonin alone (100%)
T2 construct: expressed in transfected cells; host or cells: CHO-FlpIn
T2 sequence (P41595 whole entry): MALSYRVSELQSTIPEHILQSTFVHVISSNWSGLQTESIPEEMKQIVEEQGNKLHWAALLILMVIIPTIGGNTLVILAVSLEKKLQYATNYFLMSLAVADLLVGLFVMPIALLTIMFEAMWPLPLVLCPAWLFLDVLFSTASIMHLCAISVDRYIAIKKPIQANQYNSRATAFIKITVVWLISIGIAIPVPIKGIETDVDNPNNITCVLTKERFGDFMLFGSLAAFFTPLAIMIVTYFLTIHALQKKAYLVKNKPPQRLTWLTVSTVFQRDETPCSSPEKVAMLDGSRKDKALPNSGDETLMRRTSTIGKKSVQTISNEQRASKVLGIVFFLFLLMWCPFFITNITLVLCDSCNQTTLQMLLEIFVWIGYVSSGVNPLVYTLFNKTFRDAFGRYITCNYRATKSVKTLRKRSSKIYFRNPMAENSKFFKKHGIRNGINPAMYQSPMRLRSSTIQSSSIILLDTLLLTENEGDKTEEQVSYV
Protocol: 3. Human 5-HT2B Functional Assay
Cells were seeded into sterile black 384-well plates with clear bottom at 30,000 cells/well in a volume of 25 μl and grown overnight at 37° C., in 5% CO2 in tissue culture medium (“CHO-S-SFM II” by Invitrogen), containing 1% dialysed FCS and 50 μg/ml gentamicin (Invitrogen). On the next morning, medium was replaced by a serum free version of the same tissue culture medium for a further incubation for 4 hours at 37° C. and in 5% CO2. Cells were then loaded with a fluorescent calcium-sensitive dye in the presence of 0.07% probenecid for an hour at 37° C., according to the manufacturer's protocol (Ca5-Assay Kit, Molecular Devices), followed by an additional 60 min incubation at room temperature. Serial compound dilutions (final concentrations of 10^−10 to 10^−5M, prepared in HBSS+50 mM HEPES) were first added to the cells alone (“first addition” to assess agonism on the 5-HT2B receptor), then after 8 min, serotonin was added to the same wells at a final concentration of 10^−8 M (“second addition” to see potential antagonistic effect) and the maximal calcium response was determined using a FLIPR® Tetra instrument (Molecular Devices) in each of the two steps. The relative efficacy of the compounds was calculated as a percentage of the maximal effect induced by serotonin alone (defined as 100%). To determine EC50/IC50 values, concentration-response curves were fitted using a four-parameter logistic equation (IDBS Biobook™). Kb values were calculated from IC50 values, according to Cheng & Prusoff.

[3] = biological target: T3, 5-HT2C receptor (Homo sapiens, UniProt P28335); assay: Human 5-HT2C functional assay (beta-arrestin2 recruitment, U2OS_HTR2C_β-Arrestin cells); conditions: for EC50: potency in functional assay, beta-arrestin2 recruitment, 1.5 h incubation; for % efficacy (5-HT2C): relative efficacy vs 10 μM 5-HT or maximal 5-HT effect (100%); for Emax: read-out: % efficacy (5-HT2C), relative efficacy vs 10 μM 5-HT or maximal 5-HT effect (100%)
T3 construct: host or cells: U2OS
T3 sequence (P28335 33-458): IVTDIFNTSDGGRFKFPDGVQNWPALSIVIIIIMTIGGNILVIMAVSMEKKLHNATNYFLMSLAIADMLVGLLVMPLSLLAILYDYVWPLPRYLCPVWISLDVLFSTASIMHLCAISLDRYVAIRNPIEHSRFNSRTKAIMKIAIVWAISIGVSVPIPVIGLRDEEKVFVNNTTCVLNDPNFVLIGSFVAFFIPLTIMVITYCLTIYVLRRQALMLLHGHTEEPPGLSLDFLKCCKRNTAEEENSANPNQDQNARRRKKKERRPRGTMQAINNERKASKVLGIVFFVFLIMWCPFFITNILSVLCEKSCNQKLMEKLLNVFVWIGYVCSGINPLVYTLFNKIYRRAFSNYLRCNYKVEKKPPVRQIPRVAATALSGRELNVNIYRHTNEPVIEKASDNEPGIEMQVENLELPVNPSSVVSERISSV
T3 sequence (P32121 whole entry partner): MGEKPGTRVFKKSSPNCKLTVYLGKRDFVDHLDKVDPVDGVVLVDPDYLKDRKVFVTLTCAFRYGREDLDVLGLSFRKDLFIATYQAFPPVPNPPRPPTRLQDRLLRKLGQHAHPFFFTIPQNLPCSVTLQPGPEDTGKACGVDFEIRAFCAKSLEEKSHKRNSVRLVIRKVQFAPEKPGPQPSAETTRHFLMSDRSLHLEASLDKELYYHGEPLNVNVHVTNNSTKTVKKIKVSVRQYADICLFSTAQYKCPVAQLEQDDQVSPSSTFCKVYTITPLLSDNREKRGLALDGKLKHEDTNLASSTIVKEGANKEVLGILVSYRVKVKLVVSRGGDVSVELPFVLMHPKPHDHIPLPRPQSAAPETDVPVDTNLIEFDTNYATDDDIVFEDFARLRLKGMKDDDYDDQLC
Protocol: 1. Human 5-HT2C Functional Assay
The functional activity of compounds of formula I was assayed by incubation with U2OS_HTR2C_β-Arrestin cells (DiscoverX, 93-0289C3) to induce beta-arrestin2 recruitment to the 5-HT2C receptor. The agonist-induced recruitment and proximity of the receptor and beta-arrestin2 leads to complementation and formation of active β-galactosidase. The enzyme complementation results in enzyme activity, which is measured following the termination of the agonist incubation using DiscoveRx's detection reagent, which contains a chemiluminescent substrate which produces a high intensity signal. Cells were plated and a medium-change to a 1% serum containing medium was performed 24 h later. The next day, test compounds were added and incubated for 1.5 h before addition of detection reagent.
The response produced was measured and compared with the response produced by 10 [mu]M 5-HT or the maximal effect induced by 5-HT (defined as 100%) to which it was expressed as a percentage response (relative efficacy).

Structure (SMILES)	EC50 [1]	EC50 [2]	EC50 [3]	Emax [3]	also measured
CC1CNCc2cccc3c2N1CCC3C(F)(F)F (single isomer, unassigned) [Isomer 4.C, 4-methyl-8-(trifluoromethyl)-2,3,4,6,7,8-hexahydro-1H-[1,4]diazepino[6,7,1-ij]quinoline]	20 to 200 nM	20 to 200 nM	< 20 nM	–	Emax [1]: 24%; Selectivity (based on agonism) EC50 5-HT2A/EC50 5-HT2C [1]: 2; Selectivity (based on agonism) EC50 5-HT2B/EC50 5-HT2C ([2]; listed as 4.C): 12; Emax [2]: 44%; % efficacy (5-HT2C) ([3]; listed as 4.C): 101%
CC1CNCc2cccc3c2N1CCC3C(F)(F)F (single isomer, unassigned) [Isomer 4.D, 4-methyl-8-(trifluoromethyl)-2,3,4,6,7,8-hexahydro-1H-[1,4]diazepino[6,7,1-ij]quinoline]	–	200 to 1000 nM	200 to 1000 nM	–	EC50 ([1]; listed as 4.D): > 10000 nM; Selectivity (based on agonism) EC50 5-HT2B/EC50 5-HT2C ([2]; listed as 4.D): 2; % efficacy (5-HT2B) ([2]; relative efficacy vs maximal effect of serotonin alone (100%)): 30%; % efficacy (5-HT2C) ([3]; listed as 4.D): 86%
CC1CNCc2cccc3c2N1CCC3C(F)F (single isomer, unassigned) [Isomer 5.B, 8-(difluoromethyl)-4-methyl-2,3,4,6,7,8-hexahydro-1H-[1,4]diazepino[6,7,1-ij]quinoline]	> 10000 nM	> 10000 nM	20 to 200 nM	–	% efficacy (5-HT2C) ([3]; listed as 5.B): 110%
CCOCC1CCN2c3c(cccc31)CNCC2C (centres unmarked) [Example 8, 8-(Ethoxymethyl)-4-methyl-2,3,4,6,7,8-hexahydro-1H-[1,4]diazepino[6,7,1-ij]quinoline]	> 10000 nM	> 10000 nM	200 to 1000 nM	93%	–
CC1CNCc2cccc3c2N1CCC3C(F)F (single isomer, unassigned) [Isomer 5.A, 8-(difluoromethyl)-4-methyl-2,3,4,6,7,8-hexahydro-1H-[1,4]diazepino[6,7,1-ij]quinoline]	< 20 nM	200 to 1000 nM	< 20 nM	–	Emax [1]: 21%; Selectivity (based on agonism) EC50 5-HT2A/EC50 5-HT2C [1]: 0.5; Selectivity (based on agonism) EC50 5-HT2B/EC50 5-HT2C [2]: 20; Emax [2]: 36%; % efficacy (5-HT2C) ([3]; listed as 5.A): 109%
CC1CNCc2cccc3c2N1CCC3C(F)F (centres unmarked) [Example 5, 8-(Difluoromethyl)-4-methyl-2,3,4,6,7,8-hexahydro-1H-[1,4]diazepino[6,7,1-ij]quinoline]	> 10000 nM	> 10000 nM	20 to 200 nM	95%	–
CC1CNCc2cccc3c2N1CCC3C(F)F (single isomer, unassigned) [Isomer 5.C, 8-(difluoromethyl)-4-methyl-2,3,4,6,7,8-hexahydro-1H-[1,4]diazepino[6,7,1-ij]quinoline]	–	> 10000 nM	200 to 1000 nM	–	EC50 ([1]; listed as 5.C): > 10000 nM; % efficacy (5-HT2C) ([3]; listed as 5.C): 89%
CC1CNCc2cccc3c2N1CCC3CF (centres unmarked) [Example 7, 8-(Fluoromethyl)-4-methyl-2,3,4,6,7,8-hexahydro-1H-[1,4]diazepino[6,7,1-ij]quinoline]	> 10000 nM	> 10000 nM	20 to 200 nM	107%	–
CC1CNCc2cccc3c2N1CCC3C(F)F (single isomer, unassigned) [Isomer 5.D, 8-(difluoromethyl)-4-methyl-2,3,4,6,7,8-hexahydro-1H-[1,4]diazepino[6,7,1-ij]quinoline]	–	> 10000 nM	200 to 1000 nM	–	EC50 ([1]; listed as 5.D): > 10000 nM; % efficacy (5-HT2C) ([3]; listed as 5.D): 84%
COCC1CCN2c3c(cccc31)CNCC2C (centres unmarked) [Example 9, 8-(Methoxymethyl)-4-methyl-2,3,4,6,7,8-hexahydro-1H-[1,4]diazepino[6,7,1-ij]quinoline]	> 10000 nM	> 10000 nM	200 to 1000 nM	82%	–
CC1CNCc2cccc3c2N1CCC3C(F)(F)F (single isomer, unassigned) [Isomer 4.B, 4-methyl-8-(trifluoromethyl)-2,3,4,6,7,8-hexahydro-1H-[1,4]diazepino[6,7,1-ij]quinoline]	–	> 10000 nM	20 to 200 nM	–	EC50 ([1]; listed as 4.B): > 10000 nM; % efficacy (5-HT2C) ([3]; listed as 4.B): 87%
CC1CNCc2cccc3c2N1CCC3C(F)(F)F (single isomer, unassigned) [Isomer 4.A, 4-methyl-8-(trifluoromethyl)-2,3,4,6,7,8-hexahydro-1H-[1,4]diazepino[6,7,1-ij]quinoline]	> 10000 nM	> 10000 nM	< 20 nM	101%	–
CC1CNCc2cccc3c2N1CCC3C(F)(F)F (centres unmarked) [Example 4, 4-Methyl-8-(trifluoromethyl)-2,3,4,6,7,8-hexahydro-1H-[1,4]diazepino[6,7,1-ij]quinoline]	> 10000 nM	> 10000 nM	20 to 200 nM	104%	–
